Measurements published in patent publication US10597388B2, “Pyridazinone herbicides” (FMC CORPORATION, priority 2014, dated 2020).

Tests used:
Experiment in all cases: Test C greenhouse herbicide test, pre- and postemergence
Format in all cases: in vivo
[1] = system: barnyardgrass (Echinochloa crus-galli)
Text: (§1) Seeds of plant species selected from blackgrass (Alopecurus myosuroides), ryegrass, Italian (Italian ryegrass, Lolium multiflorum), wheat (winter wheat, Triticum aestivum), galium (catchweed bedstraw, Galium aparine), corn (Zea mays), large crabgrass, large (large crabgrass, Digitaria sanguinalis), foxtail, giant (giant foxtail, Setaria faberii), johnsongrass (Sorghum halepense), lambsquarters (Chenopodium album), morningglory (Ipomoea coccinea), nutsedge, yellow (yellow nutsedge, Cyperus esculentus), pigweed (Amaranthus retroflexus), ragweed (common ragweed, Ambrosia elatior), soybean (Glycine max), barnyardgrass (Echinochloa crus-galli), oilseed rape (Brassica napus), waterhemp (common waterhemp, Amaranthus rudis), and velvetleaf (Abutilon theophrasti) were planted into a blend of loam soil and sand and treated preemergence with test chemicals formulated in a non-phytotoxic solvent mixture which included a surfactant.
(§2) At the same time, plants selected from these crop and weed species and also chickweed (common chickweed, Stellaria media), kochia (Kochia scoparia), and oat, wild (wild oat, Avena fatua), were planted in pots containing Redi-Earth® planting medium (Scotts Company, 14111 Scottslawn Road, Marysville, Ohio 43041) comprising spaghnum peat moss, vermiculite, wetting agent and starter nutrients and treated with postemergence applications of test chemicals formulated in the same manner. Plants ranged in height from 2 to 18 cm (1- to 4-leaf stage) for postemergence treatments. Treated plants and controls were maintained in a greenhouse for 13 to 15 d, after which time all species were compared to controls and visually evaluated. Plant response ratings, summarized in Table C, are based on a scale of 0 to 100 where 0 is no effect and 100 is complete control. A dash (-) response means no test result.

[2] = system: blackgrass (Alopecurus myosuroides)
Text: as §1, §2

corn (Zea mays) = system: corn (Zea mays)
Text: as §1, §2

[3] = system: crabgrass, large (large crabgrass, Digitaria sanguinalis)
Text: as §1, §2

[4] = system: foxtail, giant (giant foxtail, Setaria faberii)
Text: as §1, §2

[5] = system: galium (catchweed bedstraw, Galium aparine)
Text: as §1, §2

[6] = system: johnsongrass (Sorghum halepense)
Text: as §1, §2

[7] = system: lambsquarters (Chenopodium album)
Text: as §1, §2

[8] = system: morningglory (Ipomoea coccinea)
Text: as §1, §2

[9] = system: nutsedge, yellow (yellow nutsedge, Cyperus esculentus)
Text: as §1, §2

[10] = system: oilseed rape (Brassica napus)
Text: as §1, §2

[11] = system: pigweed (Amaranthus retroflexus)
Text: as §1, §2

[12] = system: ragweed (common ragweed, Ambrosia elatior)
Text: as §1, §2

[13] = system: ryegrass, Italian (Italian ryegrass, Lolium multiflorum)
Text: as §1, §2

[14] = system: velvetleaf (Abutilon theophrasti)
Text: as §1, §2

[15] = system: waterhemp (common waterhemp, Amaranthus rudis)
Text: as §1, §2

[16] = Postemergence, 16 g ai/ha, scale 0 to 100 (0 no effect, 100 complete control)
[17] = Postemergence, 31 g ai/ha, scale 0 to 100 (0 no effect, 100 complete control)
[18] = Postemergence, 62 g ai/ha, 0 to 100 scale (0 no effect, 100 complete control)
[19] = Postemergence, 125 g ai/ha, scale 0 to 100, 0 is no effect, 100 is complete control
[20] = postemergence, 125 g ai/ha, scale 0 to 100, 0 no effect, 100 complete control
[21] = Postemergence, 31 g ai/ha, 0 to 100 scale (0 no effect, 100 complete control)
[22] = Postemergence, 250 g ai/ha, scale 0 to 100, 0 no effect, 100 complete control, 13 to 15 d
[23] = postemergence, 62 g ai/ha, scale 0 to 100, 0 no effect, 100 complete control

COC(=O)Oc1cnn(C)c(=O)c1-c1c(C)ccc2ccccc12 [Compound 143]
Plant response rating, Barnyardgrass [1, 16]: 15
Plant response rating, Barnyardgrass [1, 17]: 20
Barnyardgrass plant response rating [1, 18]: 25
Plant response rating, Barnyardgrass [1, 19]: 30
Plant response rating, Blackgrass [2, 16]: 0
Plant response rating, Blackgrass [2, 17]: 5
Blackgrass plant response rating [2, 18]: 5
Blackgrass plant response rating [2, 20]: 20
Plant response rating, Corn (corn (Zea mays); [16]): 0
Plant response rating, Corn (corn (Zea mays); [17]): 5
Corn plant response rating (corn (Zea mays); [18]): 0
Corn plant response rating (corn (Zea mays); [20]): 5
Plant response rating, Crabgrass, Large [3, 16]: 5
Plant response rating, Crabgrass, Large [3, 17]: 10
Crabgrass, Large plant response rating [3, 18]: 10
Crabgrass, Large plant response rating [3, 20]: 30
Plant response rating, Foxtail, Giant [4, 16]: 5
Plant response rating, Foxtail, Giant [4, 17]: 5
Foxtail, Giant plant response rating [4, 18]: 5
Foxtail, Giant plant response rating [4, 20]: 20
Plant response rating, Galium [5, 16]: 60
Plant response rating, Galium [5, 17]: 65
Galium plant response rating [5, 18]: 90
Galium plant response rating [5, 20]: 90
Plant response rating, Johnsongrass [6, 16]: 10
Plant response rating, Johnsongrass [6, 17]: 10
Johnsongrass plant response rating [6, 18]: 25
Johnsongrass plant response rating [6, 20]: 20
Plant response rating, Lambsquarters [7, 16]: 10
Plant response rating, Lambsquarters [7, 17]: 50
Lambsquarters plant response rating [7, 18]: 60
Lambsquarters plant response rating [7, 20]: 75
Plant response rating, Morningglory [8, 16]: 30
Plant response rating, Morningglory [8, 17]: 50
Morningglory plant response rating [8, 18]: 65
Morningglory plant response rating [8, 20]: 70
Plant response rating, Nutsedge, Yellow [9, 16]: 10
Plant response rating, Nutsedge, Yellow [9, 17]: 10
Nutsedge, Yellow plant response rating [9, 18]: 40
Nutsedge, Yellow plant response rating [9, 20]: 35
Plant response rating, Oilseed Rape [10, 16]: 60
Plant response rating, Oilseed Rape [10, 17]: 0
Oilseed Rape plant response rating [10, 18]: 0
Oilseed Rape plant response rating [10, 20]: 5
Plant response rating, Pigweed [11, 16]: 50
Plant response rating, Pigweed [11, 17]: 50
Pigweed plant response rating [11, 18]: 65
Pigweed plant response rating [11, 20]: 75
Plant response rating, Ragweed [12, 16]: 0
Plant response rating, Ragweed [12, 17]: 0
Ragweed plant response rating [12, 18]: 30
Ragweed plant response rating [12, 20]: 70
Plant response rating, Ryegrass, Italian [13, 16]: 45
Plant response rating, Ryegrass, Italian [13, 17]: 55
Ryegrass, Italian plant response rating [13, 18]: 60
Ryegrass, Italian plant response rating [13, 20]: 90
Plant response rating, Velvetleaf [14, 16]: 30
Plant response rating, Velvetleaf [14, 17]: 20
Velvetleaf plant response rating [14, 18]: 25
Velvetleaf plant response rating [14, 20]: 50
Plant response rating, Waterhemp [15, 16]: 25
Plant response rating, Waterhemp [15, 17]: 40
Waterhemp plant response rating [15, 18]: 55
Waterhemp plant response rating [15, 20]: 90

Cc1ccc(-c2c(O)c(Br)nn(C)c2=O)c2ccccc12 [Compound 52]
Barnyardgrass plant response rating [1, 21]: 5
Plant response rating, Barnyardgrass [1, 19]: 5
Plant response rating, Barnyardgrass [1, 22]: 10
Barnyardgrass plant response rating [1, 23]: 5
Blackgrass plant response rating [2, 21]: 0
Plant response rating, Blackgrass [2, 19]: 30
Plant response rating, Blackgrass [2, 22]: 30
Blackgrass plant response rating [2, 23]: 10
Corn plant response rating (corn (Zea mays); [21]): 0
Plant response rating, Corn (corn (Zea mays); [19]): 0
Plant response rating, Corn (corn (Zea mays); [22]): 0
Corn plant response rating (corn (Zea mays); [23]): 0
Crabgrass, Large plant response rating [3, 21]: 0
Plant response rating, Crabgrass, Large [3, 19]: 5
Plant response rating, Crabgrass, Large [3, 22]: 10
Crabgrass, Large plant response rating [3, 23]: 0
Foxtail, Giant plant response rating [4, 21]: 0
Plant response rating, Foxtail, Giant [4, 19]: 10
Plant response rating, Foxtail, Giant [4, 22]: 35
Foxtail, Giant plant response rating [4, 23]: 5
Galium plant response rating [5, 21]: 90
Plant response rating, Galium [5, 19]: 100
Plant response rating, Galium [5, 22]: 100
Galium plant response rating [5, 23]: 100
Johnsongrass plant response rating [6, 21]: 5
Plant response rating, Johnsongrass [6, 19]: 10
Plant response rating, Johnsongrass [6, 22]: 15
Johnsongrass plant response rating [6, 23]: 10
Lambsquarters plant response rating [7, 21]: 55
Plant response rating, Lambsquarters [7, 19]: 75
Plant response rating, Lambsquarters [7, 22]: 98
Lambsquarters plant response rating [7, 23]: 60
Morningglory plant response rating [8, 21]: 98
Plant response rating, Morningglory [8, 19]: 100
Plant response rating, Morningglory [8, 22]: 100
Morningglory plant response rating [8, 23]: 100
Nutsedge, Yellow plant response rating [9, 21]: 60
Plant response rating, Nutsedge, Yellow [9, 19]: 90
Plant response rating, Nutsedge, Yellow [9, 22]: 95
Nutsedge, Yellow plant response rating [9, 23]: 80
Oilseed Rape plant response rating [10, 21]: 0
Plant response rating, Oilseed Rape [10, 19]: 0
Plant response rating, Oilseed Rape [10, 22]: 0
Oilseed Rape plant response rating [10, 23]: 0
Pigweed plant response rating [11, 21]: 30
Plant response rating, Pigweed [11, 19]: 10
Plant response rating, Pigweed [11, 22]: 55
Pigweed plant response rating [11, 23]: 5
Ragweed plant response rating [12, 21]: 55
Plant response rating, Ragweed [12, 19]: 80
Plant response rating, Ragweed [12, 22]: 98
Ragweed plant response rating [12, 23]: 65
Ryegrass, Italian plant response rating [13, 21]: 10
Plant response rating, Ryegrass, Italian [13, 19]: 45
Plant response rating, Ryegrass, Italian [13, 22]: 60
Ryegrass, Italian plant response rating [13, 23]: 40
Velvetleaf plant response rating [14, 21]: 5
Plant response rating, Velvetleaf [14, 19]: 55
Plant response rating, Velvetleaf [14, 22]: 100
Velvetleaf plant response rating [14, 23]: 25
Waterhemp plant response rating [15, 21]: 10
Plant response rating, Waterhemp [15, 19]: 10
Plant response rating, Waterhemp [15, 22]: 55
Waterhemp plant response rating [15, 23]: 10
